System: epidermal stem cell
Text: Unless otherwise specified, all mice used in this study were males of approximately 2 months of age and from a C57BL6 genetic background. Mice of a FVB genetic background (2 months-old) were also used in Supplementary FIG. S1. Generation and characteristics of the Terc−/− and the K15-EGFP mice were previously described (Morris et al., 2004; Blasco et al., 1997).
To induce epidermal stem cell “mobilization” (activation, migration and proliferation), tail skin in the telogen (resting) phase of the hair cycle was topically treated every 48 h with TPA (20 nmol in acetone) for a total of four doses. Control mice of each genotype were treated with acetone alone. 24-hours after the last TPA treatment, mice were sacrificed and the tail skin analysed.
For telomere length analyses, samples from mouse tail and back skin, small intestine, cornea, testis and brain were harvested and fixed o/n in neutralbuffered formalin at 4° C., dehydrated through graded alcohols and xylene, and embedded in paraffin. Prior to embedding, dissected skin was cut parallel to the spine in order to obtain longitudinal hair follicle sections. The intestinal tract was flushed with PBS and rolled up in a compact circle using longitudinally oriented jejunal sections for analysis. For cornea and testis analyses, whole eyes and testis were cut in half prior to dehydration. Finally, brain was coronal-dissected to harvest the rostral hippocampus. In all cases, […] sections were used for QFISH and immunostaining analyses.
For Q-FISH, paraffin-embedded tissue sections were hybridized with a PNA-tel Cy3-labelled probe and telomere length was determined as described (González-Suárez et al., 2000; Muñoz et al., 2005; Zijlmans et al., 1997). Slides were deparaffinized in three xylene washes (3 m each), then treated for 3 m with a 100, 95 and 70% ethanol series, followed by telomere Q-FISH protocol performed as described (Samper et al., 2000). DAPI, Cy3 signals were acquired simultaneously into separate channels using a confocal ultraspectral microscope (Leica TCS-SP2-A-OBS-UV) using a PL APO 20×/0.70 PH2 as lens with Leica LCS software and maximum projections from image stacks (10 sections at steps 1.0 μm) were generated for image quantification. The DPSS-561 laser (Cy3 laser) was hold at a constant intensity to capture all the mouse tissues images.
High throughput quantitative image analysis was performed on confocal images using the Metamorph platform (version 6.3r6; Molecular Devices, Union City, Calif.). The DAPI image was used to define the nuclear area and the Cy3 image to quantify of telomere fluorescence. In all cases, background noise was subtracted from each image prior to making […] measurements. The DAPI images were signal-intensity thresholded, segmented and converted to 1-bit binary image. The binary DAPI mask was applied to the matching Cy3 to obtain a combined image with telomere fluorescence information for each
nucleus. Cy3 fluorescence intensity (telomere fluorescence) was measured as “average gray values” (total gray value/nuclei area) units (arbitrary units of fluorescence). These “average telomere fluorescence” values always represent the average Cy3 pixel intensity for the total nuclear area, and not the average value of individual telomere spot intensities, therefore ruling out that differences in nuclear size may influence telomere length measurements. A code of four colours was used to classify the nuclei according to their average telomere fluorescence. Telomere fluorescence ranges were initially set up to allocate in each range roughly ¼ of the total cells of a given tissue in wild type mice of 2 months of age. […] Telomere fluorescence ranges of a given tissue obtained in this manner were then maintained constant between genotypes, treatment and ages to facilitate comparisons.

[1] = wild-type mice, TPA-treated vs untreated, FIG. 1d, significant
[2] = wild-type mice, upon TPA treatment, FIG. 6

SMILES: CCCCCCCCCCCCCC(=O)O[C@@H]1[C@@H](C)[C@@]2(O)[C@@H](C=C(CO)C[C@]3(O)C(=O)C(C)=C[C@@H]23)[C@H]2C(C)(C)[C@]12OC(C)=O [TPA]
- percentage of cells with the longest telomeres at the TA compartments and the interfollicular epidermis (telomerase-deficient G1 Terc-/- mice, TPA-treated skin, FIG. 1c,d): did not show increased percentage
- percentage of cells with the longest telomeres at the hair bulge (telomerase-deficient G1 Terc-/- mice, TPA-treated vs untreated skin, FIG. 1c): reduction
- total number of epidermal cells showing the longest telomeres (telomerase-deficient G1 Terc-/- mice, TPA-treated vs untreated skin, P<0.01, FIG. 1e): decreased
- frequency of long telomeres in all hair follicle compartments (telomere length histograms) (telomerase-deficient G1 Terc-/- mice, TPA-treated, FIG. 6): decreased frequency of long telomeres
- total number of epidermal cells showing 1800-3000 a.u. of telomere fluorescence (wild-type mice, TPA-treated vs untreated skin, P<0.05, FIG. 1e): significantly increased
- cells with the longest telomeres in the TA compartments (hair bulb and infundibulum) (wild-type mice, TPA-treated vs untreated tail skin): accumulation
- percentage of the cells with the longest telomeres at the hair bulge (wild-type mice, TPA-treated vs untreated tail skin, longest telomeres = 1800-3000 a.u. telomere fluorescence): decreased
- absolute number of cells containing the longest telomeres at the hair bulge [1]: decreased at the hair bulge
- absolute number of cells containing the longest telomeres in the other epidermal compartments [1]: concomitantly increased
- frequency of long telomeres in hair bulge cells (telomere length histograms) [2]: decreased frequency of long telomeres
- telomere length in cells located at the TA compartment and the interfollicular epidermis (telomere length histograms) [2]: increased telomere length
